Earlier results as cited in patent publication US20080213414A1, “Compositions containing phaseolus vulgaris extract and alpinia officinarum extract for the prevention and treatment of obesity and type II diabetes” (priority 2005, published 2008).

Experiments:
pancreatic lipase = molecular target: T1, pancreatic lipase (Homo sapiens, UniProt P16233)
T1 sequence (P16233 17-465): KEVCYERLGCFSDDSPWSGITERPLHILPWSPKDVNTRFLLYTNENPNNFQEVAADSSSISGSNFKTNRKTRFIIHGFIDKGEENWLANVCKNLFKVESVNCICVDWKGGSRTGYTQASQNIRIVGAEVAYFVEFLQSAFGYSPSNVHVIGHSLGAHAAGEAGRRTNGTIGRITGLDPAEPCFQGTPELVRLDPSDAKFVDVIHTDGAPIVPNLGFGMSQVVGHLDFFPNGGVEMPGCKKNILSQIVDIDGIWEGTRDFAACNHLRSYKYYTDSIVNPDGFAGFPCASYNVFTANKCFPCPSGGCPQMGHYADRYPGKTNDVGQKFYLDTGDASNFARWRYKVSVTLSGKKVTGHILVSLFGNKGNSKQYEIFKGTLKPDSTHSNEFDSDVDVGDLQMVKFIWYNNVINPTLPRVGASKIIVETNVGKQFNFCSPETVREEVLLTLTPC

[1] = without gastroprotection

## COc1c(-c2ccccc2)oc2cc(O)cc(O)c2c1=O [3-methylethergalangin]
Pancreatic lipase
  IC50, inhibition of pancreatic lipase: around 1 mg/ml
[1]
  stability to the gastric juices: not broken down by the gastric juices
